The target of assay [1] is T1, ClpB (Escherichia coli, UniProt P63284).
T1 construct: made in house
Put plainly: ClpB luciferase reactivation assay. Type of assay: biochemical, E. coli. The method, then: (§1) Luciferase reactivation was performed as described, [37]. To assemble aggregates, firefly luciferase (50 µM) in luciferase refolding buffer (LRB, 25 mM HEPES-KOH, 7.4, 150 mM KAOc, 10 mM MgAOc, 10 mM DTT) with 6 M urea was incubated at 30°C for 20 min. Luciferase was then rapidly diluted 100-fold into LRB, divided into 100 µL aliquots, snap frozen in liquid N2, and stored at −80°C. For reactivation assays, aggregated luciferase (50 nM) was incubated with Hsp104 (1 µM hexamer), plus 2.6 mM ATPγS, 2.6 mM ATP and an ATP regeneration system (1 mM creatine phosphate, 0.25 µM creatine kinase (Roche Applied Science)) for 90 minutes at 25°C. Luciferase assay system was purchased from Promega. Luciferase activity was assessed by luminescence measured on a Safire^2 microplate reader (Tecan, Männedorf, Switzerland). The half maximal inhibitory concentration (IC50) was calculating by fitting luciferase-refolding data at different Suramin concentrations with Prism (GraphPad Software, Inc., La Jolla, CA).
(A) ClpB (0.25 µM monomer) was incubated for 10 min with ATP (1 mM) and varying concentrations of Suramin. The amount of Pi produced was measured by absorbance at 635 nm. Absorbance values were normalized to the absorbance produced by ClpB in the absence of inhibitor. Values represent mean ±S.D. (n = 6). (B) Urea-denatured firefly luciferase aggregates were incubated for 90 min at 25°C with ClpB (1 µM hexamer) in the presence of 1∶1 mixtures of ATP and ATPγS and varying concentrations of Suramin. Reactivation of luciferase was then determined by luminescence and converted to % WT ClpB activity (activity of 1 µM WT ClpB in the presence of ATP and ATPγS). Values represent mean ±S.D. (n = 6–12). TEXT PRINTED IN THE PICTURE: (A) Suramin: Normalized ATPase Activity: 1.03 ([Suramin] μM: 0); Normalized ATPase Activity: 0.76 ([Suramin] μM: 100); Normalized ATPase Activity: 0.78 ([Suramin] μM: 50); Normalized ATPase Activity: 0.60 ([Suramin] μM: 25); Normalized ATPase Activity: 0.59 ([Suramin] μM: 10); Normalized ATPase Activity: 0.65 ([Suramin] μM: 5); Normalized ATPase Activity: 1.01 ([Suramin] μM: 1) | (B) Suramin: Normalized Luciferase Refolding Activity: 1.00 ([Suramin] μM: 0); Normalized Luciferase Refolding Activity: 0.16 ([Suramin] μM: 100); Normalized Luciferase Refolding Activity: 1.03 ([Suramin] μM: 50); Normalized Luciferase Refolding Activity: 1.39 ([Suramin] μM: 25); Normalized Luciferase Refolding Activity: 2.23 ([Suramin] μM: 10); Normalized Luciferase Refolding Activity: 1.82 ([Suramin] μM: 5); Normalized Luciferase Refolding Activity: 1.02 ([Suramin] μM: 1)

Assay [2] deals with T2, Quantilum recombinant luciferase (Photinus pyralis, UniProt P08659).
T2 construct: purchased Promega (Madison, WI)
In words: Luciferase activity determination (native luciferase control). Format: biochemical. The note with it: Suramin 100 µM, luciferase 50 nM; data not shown. On the procedure:
Quantilum recombinant luciferase (native) was diluted to 5000, 500, 50, 5 and 0.5 nM in the presence or absence of Suramin. Dilutions were mixed with luciferase assay system (Promega). Luciferase activity was assessed by luminescence measured on a Safire^2 microplate reader.

The target in assay [3] is T3, Hsp104^T317A (Saccharomyces cerevisiae, UniProt P31539, T317A).
T3 construct: made in house; host or cells: E. coli BL21-DE3 RIL
In words: Luciferase reactivation, Hsp104^T317A. Type of assay: biochemical, yeast. The settings on record: ATP:ATPγS 1:1. The method, then:
as §1
(§2) Figure 7 Hsp104 variants respond differently to Suramin than Hsp104^WT. (A) Hsp104 variants (0.25 µM monomer) were incubated for 10 min with ATP (1 mM) and varying concentrations of Suramin. The amount of Pi produced was measured by absorbance at 635 nm. Absorbance values were normalized to the absorbance produced by each Hsp104 variant in the absence of inhibitor. Values represent mean ±S.D. (n = 6). (B) Urea-denatured firefly luciferase aggregates were incubated for 90 min at 25°C with Hsp104 variants (1 µM hexamer) plus 1∶1 mixtures of ATP and ATPγS (or ATP alone) and varying concentrations of Suramin. Luciferase reactivation was then determined and normalized to untreated disaggregase activity for each variant in the presence of ATPγS: ATP (or ATP alone). 1∶1 mixtures of ATP and ATPγS were used for Hsp104^WT and Hsp104^T317A, while ATP alone was used for Hsp104^A503V and Hsp104^N728A. Values represent mean ±S.D. (n = 6–12).

For assay [4], the target named is T4, Hsp104^N728A (Saccharomyces cerevisiae, UniProt P31539, N728A).
T4 construct: made in house; host or cells: E. coli BL21-DE3 RIL
Put plainly: biochemical. Type of assay: biochemical, yeast. The settings on record: for Hsp104^N728A refolding activity: ATP alone. The method, then:
as §1
as §2, with “(A)” for “Figure 7 Hsp104 variants respond differently to Suramin than Hsp104^WT. (A)”

Assay [5] has as its target T5, Hsp104^A503V (Saccharomyces cerevisiae, UniProt P31539, A503V).
T5 construct: made in house; host or cells: E. coli BL21-DE3 RIL
Put plainly: biochemical. Type of assay: biochemical, yeast. The method, then: as §1
as §2, with “(A)” for “Figure 7 Hsp104 variants respond differently to Suramin than Hsp104^WT. (A)”

T4 sequence (P31539 whole entry N728A): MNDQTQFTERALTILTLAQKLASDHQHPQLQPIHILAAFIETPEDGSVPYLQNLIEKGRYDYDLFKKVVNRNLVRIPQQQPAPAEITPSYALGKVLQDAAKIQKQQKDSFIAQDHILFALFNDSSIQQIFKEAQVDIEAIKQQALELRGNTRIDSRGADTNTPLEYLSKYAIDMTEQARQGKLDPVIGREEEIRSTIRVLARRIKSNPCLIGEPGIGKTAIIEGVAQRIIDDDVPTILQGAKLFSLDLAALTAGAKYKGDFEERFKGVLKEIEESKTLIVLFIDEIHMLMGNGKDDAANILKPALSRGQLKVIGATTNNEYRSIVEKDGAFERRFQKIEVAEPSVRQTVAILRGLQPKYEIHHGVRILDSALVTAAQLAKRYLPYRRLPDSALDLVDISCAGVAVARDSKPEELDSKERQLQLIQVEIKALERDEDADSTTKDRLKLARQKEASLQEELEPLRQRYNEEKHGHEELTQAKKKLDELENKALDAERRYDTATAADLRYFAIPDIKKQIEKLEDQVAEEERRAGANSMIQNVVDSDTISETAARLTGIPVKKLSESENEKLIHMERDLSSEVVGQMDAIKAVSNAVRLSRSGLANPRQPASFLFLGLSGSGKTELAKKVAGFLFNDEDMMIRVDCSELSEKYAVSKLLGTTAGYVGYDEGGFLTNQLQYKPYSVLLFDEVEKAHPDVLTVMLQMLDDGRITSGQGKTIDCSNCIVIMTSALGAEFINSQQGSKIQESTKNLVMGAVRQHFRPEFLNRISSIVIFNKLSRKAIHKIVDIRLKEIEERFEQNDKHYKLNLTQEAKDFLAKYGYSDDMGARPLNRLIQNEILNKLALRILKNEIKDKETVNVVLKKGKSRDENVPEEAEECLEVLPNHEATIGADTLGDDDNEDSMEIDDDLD
T1 sequence (P63284 whole entry): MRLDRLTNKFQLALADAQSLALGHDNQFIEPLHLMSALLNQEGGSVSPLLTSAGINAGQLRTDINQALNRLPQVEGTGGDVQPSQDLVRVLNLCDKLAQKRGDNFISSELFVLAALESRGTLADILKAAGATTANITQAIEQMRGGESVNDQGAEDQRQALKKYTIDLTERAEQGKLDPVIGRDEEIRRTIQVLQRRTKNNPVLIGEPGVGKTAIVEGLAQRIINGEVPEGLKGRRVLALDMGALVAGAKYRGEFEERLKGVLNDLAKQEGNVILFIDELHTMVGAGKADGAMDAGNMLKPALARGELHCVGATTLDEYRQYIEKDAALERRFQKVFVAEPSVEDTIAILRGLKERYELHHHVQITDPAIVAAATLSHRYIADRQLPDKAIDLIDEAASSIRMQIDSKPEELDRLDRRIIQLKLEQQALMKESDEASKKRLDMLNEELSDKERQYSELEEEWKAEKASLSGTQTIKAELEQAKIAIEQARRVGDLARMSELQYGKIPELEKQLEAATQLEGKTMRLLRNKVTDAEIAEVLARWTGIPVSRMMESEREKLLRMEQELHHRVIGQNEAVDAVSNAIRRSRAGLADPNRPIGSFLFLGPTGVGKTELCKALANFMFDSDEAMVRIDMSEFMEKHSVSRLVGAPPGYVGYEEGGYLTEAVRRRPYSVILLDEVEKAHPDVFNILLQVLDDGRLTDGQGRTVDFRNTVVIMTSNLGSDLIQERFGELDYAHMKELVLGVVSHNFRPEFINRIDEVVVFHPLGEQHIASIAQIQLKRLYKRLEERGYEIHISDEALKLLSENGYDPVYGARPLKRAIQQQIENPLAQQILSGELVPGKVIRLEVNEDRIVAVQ
T3 sequence (P31539 whole entry T317A): as the sequence (P31539 whole entry N728A) above, with T317A, A728N counted along it
T5 sequence (P31539 whole entry A503V): as the sequence (P31539 whole entry N728A) above, with A503V, A728N counted along it
T2 sequence (P08659 whole entry): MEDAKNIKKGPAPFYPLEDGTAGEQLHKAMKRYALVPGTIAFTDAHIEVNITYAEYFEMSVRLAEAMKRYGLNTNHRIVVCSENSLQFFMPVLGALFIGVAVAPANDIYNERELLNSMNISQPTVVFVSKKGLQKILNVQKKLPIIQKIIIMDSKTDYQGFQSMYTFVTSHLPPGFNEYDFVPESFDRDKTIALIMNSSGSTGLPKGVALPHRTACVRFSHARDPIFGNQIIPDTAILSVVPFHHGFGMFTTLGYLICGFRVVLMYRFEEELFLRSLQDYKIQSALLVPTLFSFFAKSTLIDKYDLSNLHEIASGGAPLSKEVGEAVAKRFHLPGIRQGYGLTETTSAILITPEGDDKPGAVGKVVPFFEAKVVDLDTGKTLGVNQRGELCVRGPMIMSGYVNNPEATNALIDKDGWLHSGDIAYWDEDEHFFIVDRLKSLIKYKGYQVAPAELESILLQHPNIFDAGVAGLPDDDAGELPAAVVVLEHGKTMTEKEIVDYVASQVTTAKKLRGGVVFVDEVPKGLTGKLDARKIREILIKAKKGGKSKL

A word on the IC50: it is the concentration needed to halve the response being measured. Low values mean higher potency, high ones lower potency. `Cc1ccc(C(=O)Nc2ccc(S(=O)(=O)O)c3cc(S(=O)(=O)O)cc(S(=O)(=O)O)c23)cc1NC(=O)c1cccc(NC(=O)Nc2cccc(C(=O)Nc3cc(C(=O)Nc4ccc(S(=O)(=O)O)c5cc(S(=O)(=O)O)cc(S(=O)(=O)O)c45)ccc3C)c2)c1` [Suramin]: the “Normalized Luciferase Refolding Activity” value in assay [1] (ClpB 1 µM hexamer, Suramin 100 µM, 90 min 25°C, ATP:ATPγS 1:1, Figure 5B) is 0.16; in assay [1] (ClpB, Suramin 1 µM, Figure 5B) it was 1.02; in assay [1] (ClpB, Suramin 5 µM, Figure 5B), 1.82; in assay [1] (ClpB, Suramin 10 µM, Figure 5B), 2.23; in assay [1] (ClpB, Suramin 25 µM, Figure 5B) it was 1.39; in assay [1] (ClpB, Suramin 50 µM, Figure 5B), 1.03. For the same compound, the “ClpB refolding power retained” value in assay [1] (Suramin 50 µM) was 100%. In addition, in assay [1] (Suramin 100 µM, read-out: ClpB disaggregase activity remaining), the remaining activity at 100 µM came out at 16%. Moreover, the “Effect on ClpB luciferase reactivation” value in assay [1] (low concentrations of Suramin) is “increased the amount of luciferase ClpB was able to reactivate”. Moreover, the “Effect on luciferase activity itself” value in assay [2] is “did not inhibit luciferase activity”. For the same compound, the entries for the “Hsp104^T317A refolding activity” value in assay [3] (Suramin 1 µM) and in assay [3] (Suramin 50 µM) were “approximately 75%” and “approximately 8%”, respectively. Moreover, the IC50 in assay [3] (based on refolding data) is roughly 20.5 µM; in assay [4] it was roughly 92.4 µM; in assay [5], roughly 0.61 µM. Moreover, the results for the “Hsp104^N728A refolding activity” value in assay [4] (Suramin 1 µM) and in assay [4] (Suramin 50 µM) were roughly 100% and roughly 36%, respectively. The “Hsp104^A503V refolding activity” value in assay [5] (Suramin 1 µM, ATP alone) was “less than 50%”.

Values taken from paper PMC4192545, “Suramin Inhibits Hsp104 ATPase and Disaggregase Activity” (PLoS ONE, 2014).
